From ChEMBL document CHEMBL1649268, “Comparative in vitro activity profile of oritavancin against recent gram-positive clinical isolates” (2009)
Converted amounts (≈) assume the structure as drawn.

How the values were obtained:
Streptococcus pyogenes [1] = assay: Antimicrobial activity against erythromycin-nonsusceptible Streptococcus pyogenes clinical isolates by broth microdilution method; format: functional
Streptococcus agalactiae [2] = assay: Antimicrobial activity against Streptococcus agalactiae clinical isolates by broth microdilution method; format: functional
Streptococcus agalactiae [3] = assay: Antimicrobial activity against Streptococcus agalactiae clinical isolates assessed as percent susceptible isolates by broth microdilution method; format: functional
Staphylococcus aureus [4] = assay: Antimicrobial activity against Staphylococcus aureus clinical isolates assessed as resistant isolates by broth microdilution method; format: functional
[5] = system: Staphylococcus epidermidis; assay: Antimicrobial activity against Staphylococcus epidermidis clinical isolates by broth microdilution method; format: functional
[6] = system: Staphylococcus epidermidis; assay: Antimicrobial activity against oxacillin-susceptible Staphylococcus epidermidis clinical isolates by broth microdilution method; format: functional
Streptococcus pyogenes [7] = assay: Antimicrobial activity against erythromycin-nonsusceptible Streptococcus pyogenes clinical isolates assessed as resistant isolates by broth microdilution method; format: functional
[8] = Antimicrobial activity against Streptococcus Group G clinical isolates by broth microdilution method; format: functional; settings: Streptococcus sp. 'group G'
Streptococcus pneumoniae [9] = assay: Antimicrobial activity against Streptococcus pneumoniae clinical isolates assessed as percent susceptible isolates by broth microdilution method; format: functional
Staphylococcus aureus [10] = assay: Antimicrobial activity against oxacillin-susceptible Staphylococcus aureus clinical isolates assessed as resistant isolates by broth microdilution method; format: functional
[11] = system: Staphylococcus haemolyticus; assay: Antimicrobial activity against oxacillin-resistant Staphylococcus haemolyticus clinical isolates assessed as resistant isolates by broth microdilution method; format: functional
Streptococcus agalactiae [12] = assay: Antimicrobial activity against erythromycin-susceptible Streptococcus agalactiae clinical isolates assessed as percent susceptible isolates by broth microdilution method; format: functional
Streptococcus [13] = assay: Antimicrobial activity against Streptococcus Group F clinical isolates by broth microdilution method; format: functional
Streptococcus agalactiae [14] = assay: Antimicrobial activity against erythromycin-nonsusceptible Streptococcus agalactiae clinical isolates assessed as percent susceptible isolates by broth microdilution method; format: functional
Staphylococcus aureus [15] = assay: Antimicrobial activity against oxacillin-susceptible Staphylococcus aureus clinical isolates assessed as percent susceptible isolates by broth microdilution method; format: functional
[16] = system: Staphylococcus epidermidis; assay: Antimicrobial activity against Staphylococcus epidermidis clinical isolates assessed as percent susceptible isolates by broth microdilution method; format: functional
Streptococcus pyogenes [17] = assay: Antimicrobial activity against Streptococcus pyogenes clinical isolates assessed as resistant isolates by broth microdilution method; format: functional
[18] = Antimicrobial activity against erythromycin-nonsusceptible Streptococcus Group C clinical isolates by broth microdilution method; format: functional; settings: Streptococcus sp. 'group C'
Streptococcus pneumoniae [19] = assay: Antimicrobial activity against penicillin-susceptible Streptococcus pneumoniae clinical isolates assessed as percent susceptible isolates by broth microdilution method; format: functional
[20] = Antimicrobial activity against erythromycin-susceptible Streptococcus Group G clinical isolates assessed as percent susceptible isolates by broth microdilution method; format: functional, Streptococcus sp. 'group G'
[21] = system: Staphylococcus epidermidis; assay: Antimicrobial activity against Staphylococcus epidermidis clinical isolates assessed as resistant isolates by broth microdilution method; format: functional
Streptococcus pneumoniae [22] = assay: Antimicrobial activity against penicillin-resistant Streptococcus pneumoniae clinical isolates assessed as resistant isolates by broth microdilution method; format: functional
[23] = Antimicrobial activity against erythromycin-nonsusceptible Streptococcus Group C clinical isolates assessed as percent susceptible isolates by broth microdilution method; format: functional, Streptococcus sp. 'group C'
Streptococcus agalactiae [24] = assay: Antimicrobial activity against erythromycin-nonsusceptible Streptococcus agalactiae clinical isolates assessed as resistant isolates by broth microdilution method; format: functional
Streptococcus agalactiae [25] = assay: Antimicrobial activity against erythromycin-nonsusceptible Streptococcus agalactiae clinical isolates by broth microdilution method; format: functional
[26] = system: Staphylococcus haemolyticus; assay: Antimicrobial activity against oxacillin-resistant Staphylococcus haemolyticus clinical isolates assessed as percent susceptible isolates by broth microdilution method; format: functional
[27] = system: Staphylococcus haemolyticus; assay: Antimicrobial activity against oxacillin-susceptible Staphylococcus haemolyticus clinical isolates assessed as resistant isolates by broth microdilution method; format: functional
Streptococcus pneumoniae [28] = assay: Antimicrobial activity against penicillin-intermediate Streptococcus pneumoniae clinical isolates by broth microdilution method; format: functional
Streptococcus pyogenes [29] = assay: Antimicrobial activity against erythromycin-susceptible Streptococcus pyogenes clinical isolates assessed as percent susceptible isolates by broth microdilution method; format: functional
Streptococcus pneumoniae [30] = assay: Antimicrobial activity against penicillin-intermediate Streptococcus pneumoniae clinical isolates assessed as percent susceptible isolates by broth microdilution method; format: functional
[31] = Antimicrobial activity against erythromycin-nonsusceptible Streptococcus Group G clinical isolates assessed as percent susceptible isolates by broth microdilution method; format: functional, Streptococcus sp. 'group G'
Streptococcus pneumoniae [32] = assay: Antimicrobial activity against penicillin-susceptible Streptococcus pneumoniae clinical isolates by broth microdilution method; format: functional
Streptococcus agalactiae [33] = assay: Antimicrobial activity against Streptococcus agalactiae clinical isolates assessed as resistant isolates by broth microdilution method; format: functional
[34] = system: Staphylococcus haemolyticus; assay: Antimicrobial activity against oxacillin-susceptible Staphylococcus haemolyticus clinical isolates by broth microdilution method; format: functional
Staphylococcus aureus [35] = assay: Antimicrobial activity against Staphylococcus aureus clinical isolates assessed as percent susceptible isolates by broth microdilution method; format: functional
[36] = system: Staphylococcus haemolyticus; assay: Antimicrobial activity against Staphylococcus haemolyticus clinical isolates assessed as percent susceptible isolates by broth microdilution method; format: functional
[37] = system: Staphylococcus epidermidis; assay: Antimicrobial activity against oxacillin-susceptible Staphylococcus epidermidis clinical isolates assessed as percent susceptible isolates by broth microdilution method; format: functional
[38] = system: Staphylococcus haemolyticus; assay: Antimicrobial activity against Staphylococcus haemolyticus clinical isolates assessed as resistant isolates by broth microdilution method; format: functional
Streptococcus pneumoniae [39] = assay: Antimicrobial activity against penicillin-susceptible Streptococcus pneumoniae clinical isolates assessed as resistant isolates by broth microdilution method; format: functional
[40] = Antimicrobial activity against erythromycin-susceptible Streptococcus Group C clinical isolates assessed as percent susceptible isolates by broth microdilution method; format: functional, Streptococcus sp. 'group C'
[41] = Antimicrobial activity against erythromycin-susceptible Streptococcus Group C clinical isolates by broth microdilution method; format: functional; settings: Streptococcus sp. 'group C'
Staphylococcus aureus [42] = assay: Antimicrobial activity against oxacillin-resistant Staphylococcus aureus clinical isolates assessed as resistant isolates by broth microdilution method; format: functional
Streptococcus agalactiae [43] = assay: Antimicrobial activity against erythromycin-susceptible Streptococcus agalactiae clinical isolates by broth microdilution method; format: functional
[44] = system: Staphylococcus epidermidis; assay: Antimicrobial activity against oxacillin-resistant Staphylococcus epidermidis clinical isolates assessed as resistant isolates by broth microdilution method; format: functional
Streptococcus pneumoniae [45] = assay: Antimicrobial activity against penicillin-intermediate Streptococcus pneumoniae clinical isolates assessed as resistant isolates by broth microdilution method; format: functional
Staphylococcus aureus [46] = assay: Antimicrobial activity against oxacillin-susceptible Staphylococcus aureus clinical isolates by broth microdilution method; format: functional
Streptococcus pneumoniae [47] = assay: Antimicrobial activity against penicillin-resistant Streptococcus pneumoniae clinical isolates assessed as percent susceptible isolates by broth microdilution method; format: functional
Streptococcus [48] = assay: Antimicrobial activity against erythromycin-susceptible Streptococcus Group F clinical isolates by broth microdilution method; format: functional
[49] = system: Staphylococcus haemolyticus; assay: Antimicrobial activity against Staphylococcus haemolyticus clinical isolates by broth microdilution method; format: functional
Streptococcus pyogenes [50] = assay: Antimicrobial activity against Streptococcus pyogenes clinical isolates assessed as percent susceptible isolates by broth microdilution method; format: functional
Streptococcus pneumoniae [51] = assay: Antimicrobial activity against Streptococcus pneumoniae clinical isolates by broth microdilution method; format: functional
Streptococcus [52] = assay: Antimicrobial activity against erythromycin-nonsusceptible Streptococcus Group F clinical isolates by broth microdilution method; format: functional
[53] = system: Staphylococcus haemolyticus; assay: Antimicrobial activity against oxacillin-susceptible Staphylococcus haemolyticus clinical isolates assessed as percent susceptible isolates by broth microdilution method; format: functional
Staphylococcus aureus [54] = assay: Antimicrobial activity against oxacillin-resistant Staphylococcus aureus clinical isolates assessed as percent susceptible isolates by broth microdilution method; format: functional
[55] = Antimicrobial activity against erythromycin-susceptible Streptococcus Group G clinical isolates by broth microdilution method; format: functional; settings: Streptococcus sp. 'group G'
[56] = system: Staphylococcus epidermidis; assay: Antimicrobial activity against oxacillin-susceptible Staphylococcus epidermidis clinical isolates assessed as resistant isolates by broth microdilution method; format: functional
[57] = Antimicrobial activity against erythromycin-nonsusceptible Streptococcus Group G clinical isolates by broth microdilution method; format: functional; settings: Streptococcus sp. 'group G'
[58] = Antimicrobial activity against Streptococcus Group C clinical isolates by broth microdilution method; format: functional; settings: Streptococcus sp. 'group C'
Streptococcus pneumoniae [59] = assay: Antimicrobial activity against Streptococcus pneumoniae clinical isolates assessed as resistant isolates by broth microdilution method; format: functional
[60] = system: Staphylococcus epidermidis; assay: Antimicrobial activity against oxacillin-resistant Staphylococcus epidermidis clinical isolates by broth microdilution method; format: functional
Staphylococcus aureus [61] = assay: Antimicrobial activity against Staphylococcus aureus clinical isolates by broth microdilution method; format: functional
Streptococcus pyogenes [62] = assay: Antimicrobial activity against Streptococcus pyogenes clinical isolates by broth microdilution method; format: functional
Streptococcus pyogenes [63] = assay: Antimicrobial activity against erythromycin-susceptible Streptococcus pyogenes clinical isolates by broth microdilution method; format: functional
Streptococcus pyogenes [64] = assay: Antimicrobial activity against erythromycin-nonsusceptible Streptococcus pyogenes clinical isolates assessed as percent susceptible isolates by broth microdilution method; format: functional
[65] = system: Staphylococcus epidermidis; assay: Antimicrobial activity against oxacillin-resistant Staphylococcus epidermidis clinical isolates assessed as percent susceptible isolates by broth microdilution method; format: functional
Streptococcus pneumoniae [66] = assay: Antimicrobial activity against penicillin-resistant Streptococcus pneumoniae clinical isolates by broth microdilution method; format: functional

**Q.** Which results are given for `CC[C@H]1OC(=O)[C@H](C)[C@@H](O[C@H]2C[C@@](C)(OC)[C@@H](O)[C@H](C)O2)[C@H](C)[C@@H](O[C@@H]2O[C@H](C)C[C@H](N(C)C)[C@H]2O)[C@](C)(O)C[C@@H](C)C(=O)[C@H](C)[C@@H](O)[C@]1(C)O` [ERYTHROMYCIN]?
**A.** MIC90 (Streptococcus pyogenes [1]): > 2 µg/mL; MIC90 (Streptococcus agalactiae [2]): > 2 µg/mL; Activity (Streptococcus agalactiae [3]): 70.6%; Percent resistant isolates (Staphylococcus aureus [4]): 65.3%; MIC90 [5]: > 8 µg/mL; MIC90 [6]: > 8 µg/mL; Activity (Streptococcus pyogenes [7]): 99.2%; MIC90 [8]: 2 µg/mL (≈ 2.73 µM); Activity (Streptococcus pneumoniae [9]): 67.3%; Percent of isolates resistant (Staphylococcus aureus [10]): 35.9%; Activity [11]: 88.3%; Activity (Streptococcus agalactiae [12]): 100%; MIC90 (Streptococcus [13]): 2 µg/mL (≈ 2.73 µM); Activity (Streptococcus agalactiae [14]): 0%; Activity (Staphylococcus aureus [15]): 60.7%; Activity [16]: 32.2%; Activity (Streptococcus pyogenes [17]): 13.6%; MIC90 [18]: > 2 µg/mL; Activity (Streptococcus pneumoniae [19]): 88.1%; Activity [20]: 100%; Percent of isolates resistant [21]: 67.2%; Percent of isolates resistant (Streptococcus pneumoniae [22]): 84.5%; Activity [23]: 0%; Activity (Streptococcus agalactiae [24]): 97.5%; MIC90 (Streptococcus agalactiae [25]): > 2 µg/mL; Activity [26]: 11.7%; Activity [27]: 51.4%; MIC90 (Streptococcus pneumoniae [28]): > 2 µg/mL; Activity (Streptococcus pyogenes [29]): 100%; Activity (Streptococcus pneumoniae [30]): 41.2%; Activity [31]: 0%; MIC90 (Streptococcus pneumoniae [32]): > 2 µg/mL; Activity (Streptococcus agalactiae [33]): 28.7%; MIC90 [34]: > 8 µg/mL; Activity (Staphylococcus aureus [35]): 32.6%; Activity [36]: 21.6%; Activity [37]: 53.8%; Resistant isolates [38]: 78.4%; Percent of isolates resistant (Streptococcus pneumoniae [39]): 11.6%; Activity [40]: 100%; MIC90 [41]: 0.06 µg/mL (≈ 0.0818 µM); Percent resistant isolates (Staphylococcus aureus [42]): 90.5%; MIC90 (Streptococcus agalactiae [43]): 0.06 µg/mL (≈ 0.0818 µM); Percent of isolates resistant [44]: 75.3%; Percent of isolates resistant (Streptococcus pneumoniae [45]): 58.8%; MIC90 (Staphylococcus aureus [46]): > 8 µg/mL; Activity (Streptococcus pneumoniae [47]): 14.9%; MIC90 (Streptococcus [48]): 0.06 µg/mL (≈ 0.0818 µM); MIC90 [49]: > 8 µg/mL; Activity (Streptococcus pyogenes [50]): 86.3%; MIC90 (Streptococcus pneumoniae [51]): > 2 µg/mL; MIC90 (Streptococcus [52]): > 2 µg/mL; Activity [53]: 48.6%; Activity (Staphylococcus aureus [54]): 8.4%; MIC90 [55]: 0.06 µg/mL (≈ 0.0818 µM); Percent of isolates resistant [56]: 45.4%; MIC90 [57]: > 2 µg/mL; MIC90 [58]: 2 µg/mL (≈ 2.73 µM); Resistant isolates (Streptococcus pneumoniae [59]): 32.4%; MIC [60]: ≥ 0.12 µg/mL; MIC90 (Staphylococcus aureus [61]): > 8 µg/mL; MIC90 (Streptococcus pyogenes [62]): > 2 µg/mL; MIC90 (Streptococcus pyogenes [63]): 0.06 µg/mL (≈ 0.0818 µM); Activity (Streptococcus pyogenes [64]): 0%; Activity [65]: 24.1%; MIC (Streptococcus pneumoniae [66]): > 0.03 µg/mL
